Data taken from patent publication US20130338165A1 (Promentis Pharmaceuticals, Inc., priority 2012, published 2013).

Experiments:
cells = details: cited from earlier work
[1] = pre-pulse inhibition (PPI) model of antipsychotic-like activity; type: in vivo; details: orally-active
[2] = elevated plus maze (EPM) model of anxiolytic-like activity; type: in vivo; details: orally-active
system xc− = molecular target: T1, system xc− (Homo sapiens, UniProt Q9UPY5); test: in vitro screening assay of system xc− (14C-cystine uptake, 3H-glutamate) in 1321N1 cells; type: cell-based; details: human glial cells from brain astrocytoma (1321N1)
T1 construct: a cell line with high system xc− expression; endogenous in cells; host or cells: 1321N1 human astrocytoma cells
T1 sequence (Q9UPY5 1-501): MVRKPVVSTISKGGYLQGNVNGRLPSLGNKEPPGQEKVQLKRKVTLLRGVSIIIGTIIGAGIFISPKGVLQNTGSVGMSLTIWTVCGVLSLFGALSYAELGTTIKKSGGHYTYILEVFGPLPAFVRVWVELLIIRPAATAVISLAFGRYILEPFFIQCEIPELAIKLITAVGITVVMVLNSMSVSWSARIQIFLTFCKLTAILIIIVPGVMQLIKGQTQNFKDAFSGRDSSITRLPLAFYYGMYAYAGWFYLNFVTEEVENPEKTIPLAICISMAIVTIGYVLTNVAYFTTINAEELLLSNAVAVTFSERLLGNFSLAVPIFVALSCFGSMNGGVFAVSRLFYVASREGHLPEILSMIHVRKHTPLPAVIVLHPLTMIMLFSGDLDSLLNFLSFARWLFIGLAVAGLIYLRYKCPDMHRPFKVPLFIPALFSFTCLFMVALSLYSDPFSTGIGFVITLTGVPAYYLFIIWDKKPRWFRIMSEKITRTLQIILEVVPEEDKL
T1 sequence (P08195 1-529 partner): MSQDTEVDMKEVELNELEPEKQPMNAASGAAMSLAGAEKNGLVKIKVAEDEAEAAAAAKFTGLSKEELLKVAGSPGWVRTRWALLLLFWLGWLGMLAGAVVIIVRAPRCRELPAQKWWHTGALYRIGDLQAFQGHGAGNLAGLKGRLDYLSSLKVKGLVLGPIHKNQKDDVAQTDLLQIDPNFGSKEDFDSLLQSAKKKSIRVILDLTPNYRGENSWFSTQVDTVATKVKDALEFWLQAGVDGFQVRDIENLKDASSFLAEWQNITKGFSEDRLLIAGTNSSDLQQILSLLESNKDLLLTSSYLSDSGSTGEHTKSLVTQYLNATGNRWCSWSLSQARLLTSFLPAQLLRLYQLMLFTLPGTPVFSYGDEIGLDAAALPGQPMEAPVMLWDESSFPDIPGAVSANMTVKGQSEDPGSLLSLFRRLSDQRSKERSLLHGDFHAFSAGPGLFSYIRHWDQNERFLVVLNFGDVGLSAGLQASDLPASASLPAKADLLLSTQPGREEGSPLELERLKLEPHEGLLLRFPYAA
Source text: Using an in vitro screening assay conducted in human glial cells from brain astrocytoma (1321N1), a cell line with high system xc− expression, the compound with the following formula: […]

[3] = cited from earlier work
brain of rats = details: systemic administration; cited from earlier work
mice treated with MPTP = details: cited from earlier work
[4] = test system: alpha-synuclein overexpressing mice; details: mouse, in vivo; cited from earlier work
brain of gerbils = details: systemic administration; cited from earlier work
[5] = intravenous administration, clinical experiments; cited from earlier work

In the case of `CC(=O)N[C@H](CS)C(N)=O`, the “protection of cells from neurotoxicity induced by rotenone” value (cells) is listed as “protected cells from neurotoxicity”.

With `O=C(Cc1ccccc1)N[C@@H](CSC(c1ccccc1)(c1ccccc1)c1ccccc1)C(=O)O` the “behavioral effects in PPI model” value [1] was “significant behavioral effects”, the “behavioral effects in EPM model” value [2] was “significant behavioral effects” and the “3H-glutamate (glutamate release)” value (system xc−) was “significant elevations”. The “uptake of 14C-cystine” value (system xc−) was “robust and significant decrease”.

For `CC(=O)N[C@@H](CS)C(=O)O` [NAC, N-acetylcysteine], the solubility characteristics [3] is listed as “poor”, the “protection against oxidative stress in the brain” value (brain of rats) is listed as “provides protection against oxidative stress” and the “neuroprotective effect in different MPTP mouse models” value (mice treated with MPTP; Aoyama et al., 2008, Perry et al., 1985) is listed as “partial neuroprotective effect”. For the same compound, the “therapeutic potential in MPTP-treated mice” value (mice treated with MPTP; mouse, in vivo) was “exhibited therapeutic potential”, the “therapeutic potential in alpha-synuclein overexpressing mice” value [4] was “exhibited therapeutic potential” and the “protection against oxidative stress in the brain” value (brain of gerbils) was “provides protection against oxidative stress”.

For `N[C@@H](CCC(=O)N[C@@H](CS)C(=O)NCC(=O)O)C(=O)O` [glutathione], the solubility characteristics [3] is given as “poor” and the “reduction of motor impairment and disability” value [5] is given as 40%.
